{"source": "patent US20260345584A1", "about": "“METHODS AND PHARMACEUTICAL COMPOSITIONS FOR TREATING CHEMOTHERAPY-INDUCED PERIPHERAL NEUROPATHY WITH EG5 INHIBITORS” (UNIVERSITY OF MIAMI, priority 2023, published 2026)", "key": {"cutaneous sensory axons": {"tested_on": "cutaneous sensory axons", "assay": "Axon branch number in caudal fin (acetylated tubulin staining)", "format": "in vivo, zebrafish", "settings": "for axon branch number: 96 hr; for axon branches in the caudal fin: 96 hr paclitaxel", "procedure": "(§1) The stock solution was divided into 20-30 μl aliquots and stored at −20 °C until use (maximal 6 months). Immediately prior to use, paclitaxel was diluted in Ringer's solution and added to dechorionated larval zebrafish. The larval fish were placed individually or in small groups into wells of a 12-well plate containing the treatment solutions. The control group was 0.05% DMSO. Plates were incubated at 28.5 °C and protected from light. Treatment lengths are indicated in the Drawings, Description of the Drawings, and Examples where appropriate. […] EMD534085, Eg5 inhibitor (MedChemExpress, Cat. No. HY-15000) was diluted in 100% DMSO to make a 10 mM stock solution and stored at −20 °C. […] The solutions were exchanged every 48 hr.\n(§2) Larval fish were transferred into […] glass vials and fixed in 4% paraformaldehyde (PFA)/1× Phosphate-buffered saline (PBS) for 1.5 hr at room temperature, with gentle rocking. Following a 5-minute incubation in 1×PBS+0.1% Tween-20 (PBST), zebrafish were permeabilized in 1×PBS+0.1% Triton X-100 for 10-30 min. Larval fish were transferred into 2 ml reaction tubes and incubated in blocking buffer (1×PBST+5% BSA) for 30 min at room temperature, with rocking. Larval fish were further incubated overnight in antibody solution (Millipore Sigma, Cat. No. AB3201, 1:300 rabbit anti-GluTub; Sigma, Cat No. T6793, 1:500 mouse anti-acetylated tubulin) in blocking buffer at 4 °C, on a rotator. The next morning, larval fish were transferred into 6-well plates and washed 4×15 min in 1×PBST at room temperature, with rocking. This was followed by incubation in secondary antibody (goat anti-rabbit Cy5, Abcam, Cat. No. ab97077; goat anti-mouse Cy3, Abcam, Cat. No. ab97035) and 1:10,000 Hoechst 33342 (ThermoFisher Scientific, Cat. No. 62249, 20 mM solution) in blocking buffer for 1 hr at room temperature, with rocking. Fish were covered to avoid bleaching. Fish were washed for 4×15 min in 1×PBST at room temperature, with rocking, and immediately mounted for imaging on glass bottom petri dishes (Spectrum Laboratory Products, Cat. No. 750-10403-UE) using 1% agarose (Thermo Fisher Scientific, Cat. No. 16520050). A 1:200 dilution was used for mouse alpha-tubulin antibody (Proteintech, Cat. No. 66031-1) and a 1:1,000 dilution of donkey anti-mouse IgG Alexa488 (ThermoFisher Scientific, Cat. No. A-21202) for secondary detection. For Nox1 immunostaining, a 1:300 dilution of primary antibody (Anti-NOX1 Rabbit Polyclonal Antibody, Avantar, Cat. No. 102164-796) and a 1:1,000 dilution of secondary goat anti-rabbit Cy2 (Abcam, Cat. No. ab6940) antibody was used. Eg5 antibody (Abcam, Cat. No. 61199) was used at a 1:100 and secondary goat anti-rabbit Cy2 (Abcam, Cat. No. ab6940) at 1:1,000 dilution.\nAxon branch number quantifications were performed by drawing a 50 μm line across the dorsal, medial, and ventral caudal fin edge region at a distance of 100 μm parallel to the fin edge (which was determined to be the most reliable region to quantify distal branch numbers). Axons traversing this line were counted and averaged per treatment group. Axonal fluorescence measurements were taken using the Imaris Spots function by manually placing spots along the axon and using the fluorescence intensity profile measurements MatLab tool.\nStretching was performed after 96 hr treatment, followed by 2 hr post-stretch fixation, and staining for detection of acetylated tubulin in axons.\nTo further validate Eg5 as the pharmacological target of EMD534085 in axon regeneration, zebrafish injected with kif11 CRISPR oligo were also analyzed."}, "[1]": {"tested_on": "caudal fin keratinocytes (dfMTs)", "assay": "dfMT formation (detyrosinated fasciculated looped microtubules) in zebrafish caudal fin keratinocytes", "format": "in vivo", "procedure": "as §1, §2\nCRISPR oligos targeting kif11 were designed using the IDT CRISPR design tool (https://www.idtdna.com/site/order/designtool/index/CRISPR_CUSTOM). The oligo (5′-[…] (SEQ ID NO: 21) was designed to anneal within exon 5 of 23 exons total in zebrafish kif11 with expected mutations ~ position 270 bp in the sequenced region using the following primers for PCR amplification: Fwd 5′-[…]-3′ (SEQ ID NO: 22) and Rev 5′-[…]-3′ (SEQ ID NO: 23). The forward primer was used for sequencing and yielded deletions in transiently injected embryos, as shown in example below in which single zebrafish were sequenced (FIG. 10).\nThe CRISPR oligo was injected using the Alt-R system (IDT, https://www.idtdna.com/pages/technology/crispr/crispr-genome-editing/Alt-R-systems/cas9), which has provided highly reliable and efficient zebrafish knockout results as used herein. The IDT-recommended protocol (below) was used for CRISPR oligo preparations. Fertilized eggs were injected ~15 minutes post fertilization with CRISPR oligos to ensure maximal efficiency.\nCell counting in the caudal fin was performed in three 100 μm^2 boxes in the dorsal, medial and ventral caudal fin (~100 μm from the edge). […]"}, "[2]": {"tested_on": "epidermal keratinocytes (detyrosinated microtubules)", "assay": "Hind paw pad skin GluTub/DAPI histology in mice", "format": "in vivo, mouse", "settings": "24 mg/kg paclitaxel i.p.", "procedure": "Paws and back skin were collected at predetermined time points, placed in 10% formalin, and stored overnight at 4 °C. Samples were embedded in paraffin and sectioned at 7 μm, deparaffinized, washed with PBS, and incubated at room temperature for 5 min in 0.1% Triton X-100 in PBS and then blocked for 30 min (5% BSA). Sections were incubated with primary antibody diluted in blocking solution, overnight at 4 °C in a humidity chamber. Following PBS washes, sections were incubated for 1 h at room temperature with a secondary antibody. Tissues were mounted and assessed for staining. Antibodies used were against detyrosinated tubulin Millipore AB3201, p-KIF11 Invitrogen PA5-38647, alpha-tubulin Proteintech 66031-1-Ig, mouse Alexa Fluor 488 Invitrogen A21202, and rabbit Alexa flour 546 Invitrogen A10040. DAPI was used for nuclei counterstaining.\nImmunofluorescence staining was performed with a widefield microscopy using a Plan-Apochromatix 100× objective lens (oil immersion, numerical aperture [NA]1.4), 20× and 10× objective lens on inverted Zeiss Axio Observer Z1 using AxioVision 4.8 software. Images were acquired using a monochrome Zeiss Axio Cam MRm CCD camera. Images were processed with the NIH Image J software.\nThese mice were then sacrificed and the skin of the hind paw pad was fixed in 4% paraformaldehyde, followed by sectioning and staining with 1) anti-GluTub (to detect detyrosinated microtubules) and 2) DAPI to detect nuclei."}, "[3]": {"settings": "alone or with EMD534085 20 mg/kg x3"}}}
{"smiles": "CN(C)CCNC(=O)NC[C@H]1CC[C@@H]2[C@H](O1)c1cc(C(F)(F)F)ccc1N[C@H]2c1ccccc1", "note": "[EMD534085]", "values": [{"measurement": "axon branch number", "setting": "cutaneous sensory axons; EMD534085 alone", "result": "10.25±0.47", "unit": "branches/50 μm"}, {"measurement": "animals with dfMTs", "setting": "[1]; 25 μM EMD534085 alone", "result": 0, "unit": "%"}, {"measurement": "number of dfMT-harboring keratinocytes per animal", "setting": "[1]; EMD534085 alone, 96 hr", "result": "0±0", "unit": "cells/animal"}, {"measurement": "number of epidermal keratinocytes with dMT", "setting": "[2]; [3]", "result": "The increase was dampened when paclitaxel was injected with EMD534085"}]}
{"smiles": "CC(=O)O[C@H]1C(=O)[C@@]2(C)[C@H]([C@H](OC(=O)c3ccccc3)[C@]3(O)C[C@H](OC(=O)[C@H](O)[C@@H](NC(=O)c4ccccc4)c4ccccc4)C(C)=C1C3(C)C)[C@]1(OC(C)=O)CO[C@@H]1C[C@@H]2O", "note": "[paclitaxel]", "values": [{"measurement": "axon branch number", "setting": "cutaneous sensory axons; 100 nM paclitaxel, alone or with 48 hr EMD534085", "result": "9.86±0.43", "unit": "branches/50 μm"}, {"measurement": "axon branch number", "setting": "cutaneous sensory axons; 22 μM paclitaxel, alone or with EMD534085", "result": "7.54±0.56", "unit": "branches/50 μm"}, {"measurement": "axon branches in the caudal fin", "setting": "cutaneous sensory axons; cyba−/− fish", "result": "no change was found within the cyba−/− group"}, {"measurement": "axon degeneration after stretching", "setting": "cutaneous sensory axons; paclitaxel-treated and stretched cyba−/− mutants", "result": "rescued in paclitaxel-treated and stretched cyba−/− mutants"}, {"measurement": "axon branches in the caudal fin", "setting": "cutaneous sensory axons; wildtype", "result": "a decrease in axon branches"}, {"measurement": "dfMT-positive keratinocytes", "setting": "[1]; 100 nM paclitaxel", "result": "0.4±0.21 dfMT-positive keratinocytes/100 μm^2"}, {"measurement": "animals with dfMTs", "setting": "[1]; 100 nM paclitaxel, alone or with 25 μM EMD534085", "result": 20, "unit": "%"}, {"measurement": "number of dfMT-harboring keratinocytes per animal", "setting": "[1]; 100 nM paclitaxel, alone or with 25 μM EMD534085, 96 hr", "result": "0.4±0.21", "unit": "cells/animal"}, {"measurement": "animals with dfMT", "setting": "[1]; 22 μM paclitaxel, 48 hr", "result": "~ 45%"}, {"measurement": "keratinocytes with dfMTs", "setting": "[1]; 22 μM paclitaxel, 48 hr", "result": "3.64±1.28", "unit": "keratinocytes/100 μm^2"}, {"measurement": "keratinocytes with dfMTs", "setting": "[1]; 22 μM paclitaxel, 96 hr", "result": "7.7±1.6", "unit": "keratinocytes/100 μm^2"}, {"measurement": "animals with dfMT", "setting": "[1]; 22 μM paclitaxel, 96 hr (FIG. 1I)", "result": "~ 90%"}, {"measurement": "animals with dfMTs", "setting": "[1]; 22 μM paclitaxel, alone or with 25 μM EMD534085", "result": 65.22, "unit": "%"}, {"measurement": "number of dfMT-harboring keratinocytes per animal", "setting": "[1]; 22 μM paclitaxel, alone or with 25 μM EMD534085, 96 hr", "result": "6.957±1.49", "unit": "cells/animal"}, {"measurement": "dfMT presence", "setting": "[1]; 3 hr paclitaxel", "result": "never"}, {"measurement": "GluTub fluorescence", "setting": "[2]", "result": "increased GluTub fluorescence"}, {"measurement": "brittle skin / empty regions in the stratum spinosum", "setting": "[2]; [3]", "result": "brittle skin in the stratum spinosum"}, {"measurement": "number of epidermal keratinocytes with dMT", "setting": "[2]; [3]", "result": "an increase with paclitaxel treatment"}]}
